Reference: patent US4405717A, “Recovery of acetic acid from a fermentation broth” (priority 1981, dated 1983)
Read-outs that look alike come from different tables or passages of the source. One block for each compound: values may come before it.

Columns and labels:
[1] = for dissolution of the amine: aqueous calcium acetate solution, carbon dioxide added
Method: In carrying out the process of this invention, a molar equivalent of a water-soluble tertiary amine carbonate is added to the calcium acetate solution. The tertiary amine carbonate used in the process can be generated by the addition of carbon dioxide to a solution or suspension of the tertiary amine in water. It is most convenient to generate the tertiary amine carbonate in situ by first adding a molar equivalent of the tertiary amine to the calcium acetate solution. Then carbon dioxide is added to the mixture to generate the tertiary amine carbonate directly in the calcium acetate solution. The addition of the carbon dioxide is carried out by any convenient means. Either solid or gaseous carbon dioxide is added to the solution at atmospheric pressure or at higher pressures in a pressure vessel.
To a solution of 20 g of acetic acid and 400 ml of water was added 16 g of calcium carbonate. […] To this was added 62 g of tributylamine.

[2] = Extraction of trialkylammonium acetates: distribution coefficient (KD) between water and solvents; assay type: physicochemical; conditions: conclusion from Table I
Method: In one embodiment of this invention, the trialkylammonium acetate is extracted from the solution by means of an organic solvent. Polar solvents, such as esters, alcohols, ketones, ethers or chlorinated hydrocarbons can be used. The solvents should be insoluble or sparingly soluble in water and be good extractants for the acetate. This extraction ability is determined by measuring the amount of acetic acid in each phase when an acetate solution is extracted with an equal volume of extractant. The extraction ability is expressed as a Distribution Coefficient (KD) which is defined by the formula: [formula] The solvent should have a KD greater than about 0.4 and preferably greater than about 1.
The efficiency with which trialkylammonium acetates could be extracted from water solutions with various solvents was measured by determination of the KD of the salts between water and the solvents according to the following procedure:
A mixture of 50 ml of a 5% aqueous solution of the acetate formed by the procedure of Example 1 and 50 ml of solvent in a 250-ml Erlenmeyer flask was shaken in a wrist-action shaker for 2 hours at room temperature. The mixture was transferred to a separatory funnel where it was allowed to stand for an additional hour before the phases were separated, weighed and analyzed. […]

[3] = Thermal decomposition (dissociation) of trialkylammonium acetates; assay type: physicochemical
Method: In the final step of the process, the trialkylammonium acetate is heated to cause dissociation of the acetate with liberation of acetic acid and the amine. The temperature at which the acetate decomposes depends somewhat on the tertiary amine used. When tributylamine is employed, the acetate decomposes when held in a bath in the range of about 170°-190° C. with distillation of the acetic acid in a relatively pure form. The residue after distillation of the acid is tributylamine which can be recycled for use in the extraction process.
The syrup obtained in Example 1 was placed in a flask fitted with a 7-cm Vigreux column attached to a water-cooled condenser. The flask was heated in an oil bath to 180° C. at which temperature decomposition of the acetate occurred. The yield of acetic acid distilling at 115°-118° C. was 18.3 g which represents a 91.5% recovery of the acetic acid present in the solution.
When the process of Example 2 was repeated with the syrups containing trimethylammonium acetate, triethylammonium acetate and tripropylammonium acetate, the products that were obtained were either azeotropes or mixtures of the tertiary amine and acetic acid.

Structure (SMILES): CN(C)c1ccncc1 [4-dimethylaminopyridine]
dissolution of the amine [1]: all of the amine went into solution

Structure (SMILES): CC(=O)O.CCCCN(CCCC)CCCC [Tributylammonium Acetate, tributylammonium acetate]
extraction from water with the solvents (in words) [2]: much more efficient than any of the other combinations | decomposition temperature of the acetate ([3]; heated in an oil bath, Example 2): 180 °C

Structure (SMILES): CN(C1CCCCC1)C1CCCCC1 [dicyclohexylmethylamine]
dissolution of the amine [1]: all of the amine went into solution

Structure (SMILES): CCCCCCCCCCCCN(C)C [dimethyldodecylamine, N,N-dimethyldodecylamine]
behaviour of the salt on distillation ([3]; salts prepared from long-chain amines): distillation was accompanied by unknown side-reactions

dissolution of the amine [1]: the amine did not dissolve
Structure (SMILES): CCCCCN(CCCCC)CCCCC [triamylamine]

Structure (SMILES): CCCCN(CCCC)CCCC [tributylamine]
dissolution of the amine ([1]; listed as Tributylamine): dissolves readily

dissolution of the amine [1]: the amine did not dissolve
Structure (SMILES): CCCCCCN(CCCCCC)CCCCCC [trihexylamine]
water solubility of the amine carbonate [1]: do not form carbonates which are sufficiently soluble in water

dissolution of the amine [1]: the amine did not dissolve
Structure (SMILES): CC(C)CCCCCN(CCCCCC(C)C)CCCCCC(C)C [triisooctylamine]

Structure (SMILES): CN(C)C [trimethylamine]
water solubility of the amine carbonate ([1]; general statement): form carbonates which are water soluble

Structure (SMILES): CCCCCCCCN(CCCCCCCC)CCCCCCCC [trioctylamine]
water solubility of the amine carbonate [1]: do not form carbonates which are sufficiently soluble in water

water solubility of the amine carbonate [1]: form carbonates which are water soluble | dissolution of the amine [1]: all of the amine went into solution
Structure (SMILES): CCCN(CCC)CCC [tripropylamine]
